What was measured:
Format in all cases: in vivo, mouse
[1] = system: chronically stressed C57BL/6J mice; experiment: open field test (OFT) behavioral anxiety test in chronically stressed mice; details: 1 μM DHM in Vaseline, topical once per day for six weeks
Description: (§1) The effectiveness of DHM in the treatment of stress-induced hair loss was tested using two groups of eight week old C57BL/6J mice. Chronic stress was induced in the first group (n=20) by restraining each mouse in the test group for 3 hours per day for 21 consecutive days in a modified 50 ml clear polystyrene conical centrifuge tube with multiple air holes for ventilation. The second group of mice (n=10) remained undisturbed in their home cages (Fernandex-Vozmediano et al. (1994) “Contact dermatitis due to topical spironolactone.” Contact Dermatitis 30: 118-9; Tresch, et al. (2011) “T cell-mediated acute localized exanthematous pustulosis caused by finasteride.” J Allergy Clin Immunol 129: 589-94). The completion of the 21 day stress-induction cycle was followed by a two day withdrawal. […] The rodents' stress levels were also assessed via elevated plus maze (EPM) and open field test (OFT). […] Within the context of EPM, anxiety-related behavior was measured by the degree to which a mouse avoided the unenclosed arms of the maze. […] In OFT, each mouse was placed on an empty table surrounded by walls, and the mouse's movements and the time it spent moving were monitored. Within the context of OFT, anxiety-related behavior was measured by the degree to which a mouse avoided the open center and stayed close to the walls. […]

c57BL/6J mice = experiment: topical toxicity / allergic reaction test, Vaseline mixed with DHM on shaved skin; details: Vaseline mixed with 1 g DHM, six weeks
From the text: To determine whether topical application of DHM is toxic or causes allergic reaction, Vaseline mixed with 1 g DHM was applied to the shaved skin of c57BL/6J mice for six weeks.

C57BL/6J male mice [2] = experiment: induction of anagen on depilated dorsal skin; details: DHM 10% (w/w-%), 1 ml topical daily, day 8; vs vehicle control; similar to minoxidil 2%; P<0.05, N=10
From the text: (§2) A total of 40 seven-week-old, wild type C57BL/6J male mice were used for the study. The mice were housed individually (one mouse/cage). The mice were randomly assigned to one of four treatment groups that contained 10 mice per group. The treatment groups included a vehicle control, a positive control (minoxidil 2%), DHM 5% (w/w-%), and DHM 10% (w/w-%).
(§3) The vehicle used for all treatment groups was a mixture of alcohol denat., propanediol, water, ethylhexylglycerin, and phenoxyethanol. The DHM used in the DHM treatment groups has a purity of 98%.
(§4) The DHM 10% treatment contained the following percentage concentrations (w/w-%): 20% alcohol denat., 10% DHM, 50% propanediol, 19.5% water, and 0.5% ethylhexylglycerin and phenoxyethanol.
(§5) The hair of the dorsal skin (2×5 cm) from every mouse was removed by clipping and topical application of calcium thioglycolate to depilate the clipped area. The next day, mice without visible wounds were used for the study. The mice received a daily topical application of 1 ml of their respective treatment per day. Hair regrowth was quantified by analyzing photographs that were taken of each mouse every 4 days after topical treatment for a total of 21 days (day 0, 4, 8, 12, 16, and 21). For each mouse, an area of 3 cm^2 of the back was analyzed. All experiments were continued for 21 days. […]

[3] = system: chronically stressed C57BL/6J mice; experiment: elevated plus maze (EPM) behavioral anxiety test in chronically stressed mice; details: for behavioral anxiety (EPM and OFT together): 1 μM DHM, daily topical treatment for 6 weeks, chronically stressed mice
Description: The effectiveness of DHM in the treatment of stress-induced hair loss was tested using two groups of eight week old C57BL/6J mice. Chronic stress was induced in the first group (n=20) by restraining each mouse in the test group for 3 hours per day for 21 consecutive days in a modified 50 ml clear polystyrene conical centrifuge tube with multiple air holes for ventilation. The second group of mice (n=10) remained undisturbed in their home cages (Fernandex-Vozmediano et al. (1994) “Contact dermatitis due to topical spironolactone.” Contact Dermatitis 30: 118-9; Tresch, et al. (2011) “T cell-mediated acute localized exanthematous pustulosis caused by finasteride.” J Allergy Clin Immunol 129: 589-94). The completion of the 21 day stress-induction cycle was followed by a two day withdrawal. […] The rodents' stress levels were also assessed via elevated plus maze (EPM) and open field test (OFT). EPM and OFT are behavioral tests that are commonly used to assess anxiety by measuring a mouse's locomotor activity and willingness to explore. When anxious, rodents naturally prefer enclosed dark spaces to opened brightly lit spaces. In the EPM test, individual mice from each group were placed on a plus-shaped apparatus that was raised from the floor and had two open and two enclosed arms. Within the context of EPM, anxiety-related behavior was measured by the degree to which a mouse avoided the unenclosed arms of the maze. As shown in FIG. 2A and FIG. 2B, the unstressed mice explored the open arms, whereas the chronically stressed mice avoided the open arms and restricted their movements to the closed arms. In OFT, each mouse was placed on an empty table surrounded by walls, and the mouse's movements and the time it spent moving were monitored. Within the context of OFT, anxiety-related behavior was measured by the degree to which a mouse avoided the open center and stayed close to the walls. As shown in FIG. 2C and FIG. 2D, the unstressed mice explored center of the table, whereas the chronically stressed mice avoided the center and remained in the corners. […]

[4] = system: chronically stressed C57BL/6J mice; experiment: treatment of stress-induced hair loss (restraint-stressed mice), hair regrowth; details: 1 μM DHM in 1 oz. Vaseline, topical once per day for six weeks, vs Vaseline alone
Description: as §1

C57BL/6J male mice [5] = experiment: hair regrowth on depilated dorsal skin; details: DHM 10% (w/w-%), 1 ml topical daily, day 12; vs vehicle control; similar to minoxidil 2%; P<0.05, N=10
From the text: as §2, §3, §4, §5

With `O=C1c2c(O)cc(O)cc2O[C@H](c2cc(O)c(O)c(O)c2)[C@H]1O` [DHM, (2R,3R)-3,5,7-trihydroxy-2-(3,4,5-trihydroxyphenyl)-2,3-dihydrochromen-4-one] the “locomotor activity in OFT” value [1] was “significantly increased locomotor activity”, the “running distance in OFT” value [1] was “longer running distance comparable to those of unstressed mice” and the “changes in body weight” value (c57BL/6J mice) was “did not exhibit any changes”. The “changes in metabolic rate” value (c57BL/6J mice) was “did not exhibit any changes”, the “rash, redness, or other responses associated with an allergic reaction” value (c57BL/6J mice) was “did not exhibit rash, redness, or other responses associated with an allergic reaction” and the “induction of anagen (grading 0-3)” value (C57BL/6J male mice [2]) was “significantly different to treatment with the vehicle control”. The “willingness to explore the open arms of the EPM apparatus” value ([3]; 1 μM DHM in Vaseline, topical once per day for six weeks, compared with unstressed control mice) was “as willing to explore the open arms of the EPM apparatus as the unstressed control mice”, the “behavioral anxiety (EPM and OFT together)” value [3] was “reversed” and the “behavioral anxiety (EPM and OFT together)” value ([3]; listed as dihydromyricetin) was “behavioral anxiety was reduced”. For the same compound, the “hair regrowth on bald spots” value [4] was “hair regrowth was observed”, the “hair regrowth on bald spots” value ([4]; listed as dihydromyricetin) was “regrowth of hair” and the “hair regrowth (grading 0-3)” value (C57BL/6J male mice [5]) was “statistically significant increase in hair regrowth”.

From patent US10426718B2, “Compositions and methods for treating hair loss and delaying aging of skin” (Phyto Tech Corp., priority 2012, dated 2019)
